Measured values from US20070259866A1, “Method of Adenovirus, HIV and HPV Prophylaxis” (priority 1999, published 2007).

Columns and labels:
[1] = system: NL-HX (T cell-tropic isolate) Virus; assay: Inactivation of HIV stock by 1 hr drug treatment, then PBMC infection, fluorescent focus assay (NL-HX); format: cell-based, Human Immunodeficiency Virus (HIV); details: for Average # infected cells/area / # infected cells/area (~500 cells): 8 days; for # infected cells/area (~500 cells): single area counts
Protocol: In a study of the prophylactic effects of Compound 96 on Human Immunodeficiency Virus (HIV), virus stock solutions were inactivated by treatment with Compound 96. Stock solutions of viral types NL-HX-ADA having a p24 concentration of 4.1 μg/ml and NL-HX (P122) having a p24 concentration of 3.8 μg/ml were used for the study, along with a stock solution of Compound 96 having a concentration of 20 mg/ml in RPMI media.
Concentrated stock solution of viruses were treated for 1 hr with equal volume of medium containing the drug at the following concentrations:
After the 1 hr treatment period, the virus-drug solutions were diluted 1:1,000 with complete medium, and then mixed with an equal volume of Peripheral Blood Mononucleocyte (PBMC) cells, for a final dilution of virus and drug of 1:4,000.
The infected cultures were then incubated without any washing or other changes in media for 4 days (for the M-tropic NL-HX-ADA type) and 8 days (for the T-tropic NL-HX type). The cultures were then assayed for infection using standard fluorescent focus assays to quantitate infected cells.

[2] = system: human papillomavirus type 11 (HPV-11); assay: HPV-11 pre-treated with CTC 96, subcutaneous human foreskin xenograft infection model in SCID mouse, graft size; format: in vivo; details: for cGMD of the Grafts, Lower Quartile / cGMD of the Grafts, Median / cGMD of the Grafts, Upper Quartile: 12 weeks; for Composite Geometric Mean Diameters (cGMD) of the Grafts, Means: grafts at 12 weeks, replicates 1, 3, 4
Protocol: The activity of CTC 96 on human papillomavirus type 11 (HPV-11) prior to infection was tested by using a subcutaneous human xenograft infection model in the severe combined immunodeficiency (SCID) mouse.
Three different concentrations, 1%, 0.2% and 0.05%, of CTC 96 and a control (normal saline) were evaluated in HPV-11-infected internal human xenograft in the SCID mouse. The viral suspension was exposed for one hour with one of the four CTC 96 concentrations before being used to infect the human foreskin grafts.
Each experiment was done in quadruplicate. Twelve mice were used in each replicate. For each replicate, the four treatment groups were made of 3 mice (3 animals per cage). Each mouse received under the skin of each flank one HPV-11-infected foreskin fragment. Two foreskin donors were used, one for the fragments implanted under the left flank and a different one for the fragments implanted under the right flank. The HPV-11-infected grafts were left to grow for 12 weeks, while the mice weights were monitored every other week. At the end of the 12 weeks, the animals were sacrificed and the grafts recovered, measured and processed.
CTC 96 was applied to the virus directly, prior to infection. Just prior to exposure of the virus to CTC 96, 750 μl of normal saline was added to a vial containing 15 mg of dry CTC 96. The resulting solution contained 2% of CTC 96.
CTC 96 was incubated for 1 hour at 37° C. with the viral suspension, which was then used to infect the human foreskin fragments.
Neonatal foreskins from routine circumcision were collected at the nursery of a local hospital and placed in transport medium (Minimum Essential Medium, penicillin 25,000 U/ml, streptomycin 25 mg/mL), In a Petri dish, the foreskin's occluded side was removed using a scalpel, leaving the exposed skin prepared as a split-thickness graft. The foreskin was punched out using a 3 mm biopsy punch. One fragment was fixed in buffered formalin to serve as control in the histologic and immunocytochemical analyses. 3-4 fragments were snap frozen in liquid nitrogen, to serve as controls in the RT-PCR assay. The other fragments were split equally into four groups. Each group of fragments was dispensed in one of the vials containing 500 μl of pretreated viral suspension.
Two foreskin donors collected within 24 hours of the procedure, were used in each replicate experiment. Each viral suspension received the foreskin fragments of both foreskin donors. To recognize the foreskin donors, in each experiment we used […]. The fragments were vortexed in the suspension and left to incubate for 60 minutes at 37° C. before being grafted.
For the grafting, the mouse was anesthetized in an anesthesia chamber with 5% halothane to 2 liters of oxygen, until no corneal or pedal reflexes could be elicited. The animal was removed from the chamber, and the halothane adjusted to 2-2.5% to 1 liter of oxygen for continued administration via nose cone for the duration of the surgical procedure. The animals ears were notched for identification. The back skin was prepped with a povidone iodine swab. A 1 cm vertical incision of the skin was made on the flank with scissors. Through that incision, the subcutis was bluntly dissected with closed scissors caudad to the wound. One foreskin fragment from the […] donor was inserted in the caudad pocket, epidermis facing the mouse's skin, mucosal side in contact with the musculo-fascial plane (panniculus camosus) of the mouse. The incision was closed with two metal clips. The other side was grafted in the same manner with one foreskin fragment from the […] donor.
The animals were otherwise sacrificed by cervical dislocation 12 weeks after graft implantation. Length, width, and height of the graft were measured and recorded. The graft were then removed and split in at least two parts. One part was fixed in buffered formalin. […]

[3] = virus treated 1 hr at 0.625 mg/ml
[4] = virus treated 1 hr at 1.25 mg/ml
[5] = virus treated 1 hr at 2.5 mg/ml

Structure (SMILES): CC1=CC(C)=[N+]2CC[N+]3=C(C)C=C(C)[O][Co-4]23([n+]2cc[nH]c2C)([n+]2cc[nH]c2C)[O]1.[Br-] [Compound 96]
- reduction in infectivity ([1]; any drug-treated sample vs control infection (800-1200 infected cells per well)): ≥ 1,000 fold
- infected cells when the entire well was scanned ([1]; any of the drug-treated samples): No infected cells were detected
- inactivation of treated virus ([1]; even at the lowest concentration of drug tested (0.625 mg/ml), 1 hr treatment): completely inactivated
- Average # infected cells/area [1, 3]: 0 cells/area
- # infected cells/area (~500 cells) [1, 3]: 0 cells/area
- Average # infected cells/area [1, 4]: 0 cells/area
- # infected cells/area (~500 cells) [1, 4]: 0 cells/area
- Average # infected cells/area [1, 5]: 0 cells/area
- # infected cells/area (~500 cells) [1, 5]: 0 cells/area
- Average # infected cells/area ([1]; virus treated 1 hr at 5 mg/ml): 0 cells/area
- # infected cells/area (~500 cells) ([1]; virus treated 1 hr at 5 mg/ml): 0 cells/area
- Average # infected cells/area ([1]; virus treated 1 hr at 10 mg/ml): 0 cells/area
- # infected cells/area (~500 cells) ([1]; virus treated 1 hr at 10 mg/ml): 0 cells/area
- effect on graft size ([2]; 0.05% concentration): effective
- cGMD of the Grafts, Lower Quartile ([2]; CTC 96 0.05%): 1.94 mm
- cGMD of the Grafts, Median ([2]; CTC 96 0.05%): 2.01 mm
- cGMD of the Grafts, Upper Quartile ([2]; CTC 96 0.05%): 2.13 mm
- cGMD of the Grafts, Lower Quartile ([2]; CTC 96 0.2%): 1.70 mm
- cGMD of the Grafts, Median ([2]; CTC 96 0.2%): 1.88 mm
- cGMD of the Grafts, Upper Quartile ([2]; CTC 96 0.2%): 2.05 mm
- cGMD of the Grafts, Lower Quartile ([2]; CTC 96 1%): 1.82 mm
- cGMD of the Grafts, Median ([2]; CTC 96 1%): 1.94 mm
- cGMD of the Grafts, Upper Quartile ([2]; CTC 96 1%): 2.08 mm
- HPV-11-induced growth of the grafts ([2]; regardless of the concentration used): limited the HPV-11-inducted growth of the grafts
- Composite Geometric Mean Diameters (cGMD) of the Grafts, Means ([2]; virus exposed 1 hour to CTC 96 0.05%): 2.02 mm
- Composite Geometric Mean Diameters (cGMD) of the Grafts, Means ([2]; virus exposed 1 hour to CTC 96 0.2%): 1.86 mm
- Composite Geometric Mean Diameters (cGMD) of the Grafts, Means ([2]; virus exposed 1 hour to CTC 96 1%): 1.95 mm
